Source: US11034650B2, “Compounds useful for treating a Mannheimia haemolytica or Histophilus somni infection” (Intervet Inc., priority 2016, dated 2021)
Converted amounts (≈) assume the structure as drawn.

test system: Mannheimia haemolytica MH 6374 (ATCC 33396, reference strain); assay: MIC, broth-microdilution (CLSI VET01-A4), strain MH 6374; assay type: cell-based; settings: Mannheimia haemolytica strain MH 6374, broth-microdilution; unit assumed
Outline: (§1)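 Visual endpoint: the first dilution of a doubling series lacking turbidity gives the MIC; CLSI VET01-S3 interpretive rules applied.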

Compound | MIC MH 6374 [µg/mL]
CCNCc1ccc(C#Cc2ccc(C(=O)N[C@H](C(=O)NO)C(C)C)cc2)cc1 [Compound 201] | 6.3 (≈ 16 µM)
CC(C)([C@H](NC(=O)c1ccc(C#Cc2ccc(CN3CCOCC3)cc2)cc1)C(=O)NO)S(C)(=O)=O [Compound 258] | 1.6 (≈ 3.12 µM)
COCC(C)NCc1ccc(C#Cc2ccc(C(=O)N[C@@H](CO)C(=O)NO)cc2)cc1 (stereo partly shown) [Compound 164] | 12.5 (≈ 29.4 µM)
CC(C)(O)[C@H](NC(=O)c1ccc(C#Cc2ccc(CNCc3ccccn3)nc2)cc1)C(=O)NO [Compound 331] | 3.1 (≈ 6.55 µM)
CSC(C)(C)[C@H](NC(=O)c1ccc(C#Cc2ccc(CNCC#N)cc2)cc1)C(=O)NO [Compound 246] | 0.8 (≈ 1.78 µM)
CC(=O)C(NC(=O)c1ccc(C#Cc2ccc(CNCc3cccs3)cc2)cc1)C(=O)NO (stereo not shown) [Compound 411] | 0.8 (≈ 1.73 µM)
COCCCNCc1ccc(C#Cc2ccc(C(=O)N[C@H](C(=O)NO)C(C)C)cc2)cc1 [Compound 205] | 3.1 (≈ 7.09 µM)

test system: Mannheimia haemolytica MH 10720 (154, BRD field isolate); assay: MIC, broth-microdilution (CLSI VET01-A4), strain MH 10720; assay type: cell-based; settings: Mannheimia haemolytica strain MH 10720, broth-microdilution; unit assumed
Outline: as §1

Compound | MIC MH 10720 [µg/mL]
CCNCc1ccc(C#Cc2ccc(C(=O)N[C@H](C(=O)NO)C(C)C)cc2)cc1 [Compound 201] | 3.1 (≈ 7.88 µM)
CC(C)([C@H](NC(=O)c1ccc(C#Cc2ccc(CN3CCOCC3)cc2)cc1)C(=O)NO)S(C)(=O)=O [Compound 258] | 0.2 (≈ 0.389 µM)
COCC(C)NCc1ccc(C#Cc2ccc(C(=O)N[C@@H](CO)C(=O)NO)cc2)cc1 (stereo partly shown) [Compound 164] | 1.6 (≈ 3.76 µM)
CC(C)(O)[C@H](NC(=O)c1ccc(C#Cc2ccc(CNCc3ccccn3)nc2)cc1)C(=O)NO [Compound 331] | 0.4 (≈ 0.845 µM)
CSC(C)(C)[C@H](NC(=O)c1ccc(C#Cc2ccc(CNCC#N)cc2)cc1)C(=O)NO [Compound 246] | ≤ 0.1
CC(=O)C(NC(=O)c1ccc(C#Cc2ccc(CNCc3cccs3)cc2)cc1)C(=O)NO (stereo not shown) [Compound 411] | 0.8 (≈ 1.73 µM)
COCCCNCc1ccc(C#Cc2ccc(C(=O)N[C@H](C(=O)NO)C(C)C)cc2)cc1 [Compound 205] | 0.8 (≈ 1.83 µM)

test system: Mannheimia haemolytica MH 6357 (M7/2, reference strain, cattle infection strain); assay: MIC, broth-microdilution (CLSI VET01-A4), strain MH 6357; assay type: cell-based; settings: Mannheimia haemolytica strain MH 6357, broth-microdilution; unit assumed
Outline: as §1

Compound | MIC MH 6357 [µg/mL]
CCNCc1ccc(C#Cc2ccc(C(=O)N[C@H](C(=O)NO)C(C)C)cc2)cc1 [Compound 201] | 12.5 (≈ 31.8 µM)
CC(C)([C@H](NC(=O)c1ccc(C#Cc2ccc(CN3CCOCC3)cc2)cc1)C(=O)NO)S(C)(=O)=O [Compound 258] | 1.6 (≈ 3.12 µM)
COCC(C)NCc1ccc(C#Cc2ccc(C(=O)N[C@@H](CO)C(=O)NO)cc2)cc1 (stereo partly shown) [Compound 164] | 6.3 (≈ 14.8 µM)
CC(C)(O)[C@H](NC(=O)c1ccc(C#Cc2ccc(CNCc3ccccn3)nc2)cc1)C(=O)NO [Compound 331] | 1.6 (≈ 3.38 µM)
CSC(C)(C)[C@H](NC(=O)c1ccc(C#Cc2ccc(CNCC#N)cc2)cc1)C(=O)NO [Compound 246] | 0.4 (≈ 0.888 µM)
CC(=O)C(NC(=O)c1ccc(C#Cc2ccc(CNCc3cccs3)cc2)cc1)C(=O)NO (stereo not shown) [Compound 411] | 0.4 (≈ 0.867 µM)
COCCCNCc1ccc(C#Cc2ccc(C(=O)N[C@H](C(=O)NO)C(C)C)cc2)cc1 [Compound 205] | 1.6 (≈ 3.66 µM)

test system: Pasteurella multocida PM 10775 (080130003051, BRD field isolate); assay: MIC, broth-microdilution (CLSI VET01-A4), strain PM 10775; assay type: cell-based; settings: Pasteurella multocida strain PM 10775, broth-microdilution; unit assumed
Outline: as §1

Compound | MIC PM 10775 [µg/mL]
CCNCc1ccc(C#Cc2ccc(C(=O)N[C@H](C(=O)NO)C(C)C)cc2)cc1 [Compound 201] | ≤ 0.1
CC(C)([C@H](NC(=O)c1ccc(C#Cc2ccc(CN3CCOCC3)cc2)cc1)C(=O)NO)S(C)(=O)=O [Compound 258] | ≤ 0.1
COCC(C)NCc1ccc(C#Cc2ccc(C(=O)N[C@@H](CO)C(=O)NO)cc2)cc1 (stereo partly shown) [Compound 164] | ≤ 0.1
CC(C)(O)[C@H](NC(=O)c1ccc(C#Cc2ccc(CNCc3ccccn3)nc2)cc1)C(=O)NO [Compound 331] | 0.4 (≈ 0.845 µM)
CSC(C)(C)[C@H](NC(=O)c1ccc(C#Cc2ccc(CNCC#N)cc2)cc1)C(=O)NO [Compound 246] | ≤ 0.1
CC(=O)C(NC(=O)c1ccc(C#Cc2ccc(CNCc3cccs3)cc2)cc1)C(=O)NO (stereo not shown) [Compound 411] | 0.4 (≈ 0.867 µM)
COCCCNCc1ccc(C#Cc2ccc(C(=O)N[C@H](C(=O)NO)C(C)C)cc2)cc1 [Compound 205] | ≤ 0.1

test system: Mannheimia haemolytica MH 12587 (1071, BRD field isolate, macrolide-resistance: erm+, E+); assay: MIC, broth-microdilution (CLSI VET01-A4), strain MH 12587; assay type: cell-based; settings: Mannheimia haemolytica strain MH 12587, broth-microdilution; unit assumed
Outline: as §1

Compound | MIC MH 12587 [µg/mL]
CCNCc1ccc(C#Cc2ccc(C(=O)N[C@H](C(=O)NO)C(C)C)cc2)cc1 [Compound 201] | 12.5 (≈ 31.8 µM)
CC(C)([C@H](NC(=O)c1ccc(C#Cc2ccc(CN3CCOCC3)cc2)cc1)C(=O)NO)S(C)(=O)=O [Compound 258] | 1.6 (≈ 3.12 µM)
COCC(C)NCc1ccc(C#Cc2ccc(C(=O)N[C@@H](CO)C(=O)NO)cc2)cc1 (stereo partly shown) [Compound 164] | 25 (≈ 58.8 µM)
CC(C)(O)[C@H](NC(=O)c1ccc(C#Cc2ccc(CNCc3ccccn3)nc2)cc1)C(=O)NO [Compound 331] | 6.3 (≈ 13.3 µM)
CSC(C)(C)[C@H](NC(=O)c1ccc(C#Cc2ccc(CNCC#N)cc2)cc1)C(=O)NO [Compound 246] | 0.8 (≈ 1.78 µM)
CC(=O)C(NC(=O)c1ccc(C#Cc2ccc(CNCc3cccs3)cc2)cc1)C(=O)NO (stereo not shown) [Compound 411] | 0.2 (≈ 0.433 µM)
COCCCNCc1ccc(C#Cc2ccc(C(=O)N[C@H](C(=O)NO)C(C)C)cc2)cc1 [Compound 205] | 6.3 (≈ 14.4 µM)

test system: Mannheimia haemolytica MH 13065 (XB0446-6003.9, BRD field isolate); assay: MIC, broth-microdilution (CLSI VET01-A4), strain MH 13065; assay type: cell-based; settings: Mannheimia haemolytica strain MH 13065, broth-microdilution; unit assumed
Outline: as §1

Compound | MIC MH 13065 [µg/mL]
CCNCc1ccc(C#Cc2ccc(C(=O)N[C@H](C(=O)NO)C(C)C)cc2)cc1 [Compound 201] | 6.3 (≈ 16 µM)
CC(C)([C@H](NC(=O)c1ccc(C#Cc2ccc(CN3CCOCC3)cc2)cc1)C(=O)NO)S(C)(=O)=O [Compound 258] | 0.8 (≈ 1.56 µM)
COCC(C)NCc1ccc(C#Cc2ccc(C(=O)N[C@@H](CO)C(=O)NO)cc2)cc1 (stereo partly shown) [Compound 164] | 12.5 (≈ 29.4 µM)
CC(C)(O)[C@H](NC(=O)c1ccc(C#Cc2ccc(CNCc3ccccn3)nc2)cc1)C(=O)NO [Compound 331] | 3.1 (≈ 6.55 µM)
CSC(C)(C)[C@H](NC(=O)c1ccc(C#Cc2ccc(CNCC#N)cc2)cc1)C(=O)NO [Compound 246] | 0.8 (≈ 1.78 µM)
CC(=O)C(NC(=O)c1ccc(C#Cc2ccc(CNCc3cccs3)cc2)cc1)C(=O)NO (stereo not shown) [Compound 411] | 0.8 (≈ 1.73 µM)
COCCCNCc1ccc(C#Cc2ccc(C(=O)N[C@H](C(=O)NO)C(C)C)cc2)cc1 [Compound 205] | 1.6 (≈ 3.66 µM)

test system: Mannheimia haemolytica MH 13093 (XB0472-6014.1, BRD field isolate); assay: MIC, broth-microdilution (CLSI VET01-A4), strain MH 13093; assay type: cell-based; settings: Mannheimia haemolytica strain MH 13093, broth-microdilution; unit assumed
Outline: as §1

Compound | MIC MH 13093 [µg/mL]
CCNCc1ccc(C#Cc2ccc(C(=O)N[C@H](C(=O)NO)C(C)C)cc2)cc1 [Compound 201] | 6.3 (≈ 16 µM)
CC(C)([C@H](NC(=O)c1ccc(C#Cc2ccc(CN3CCOCC3)cc2)cc1)C(=O)NO)S(C)(=O)=O [Compound 258] | 1.6 (≈ 3.12 µM)
COCC(C)NCc1ccc(C#Cc2ccc(C(=O)N[C@@H](CO)C(=O)NO)cc2)cc1 (stereo partly shown) [Compound 164] | 25 (≈ 58.8 µM)
CC(C)(O)[C@H](NC(=O)c1ccc(C#Cc2ccc(CNCc3ccccn3)nc2)cc1)C(=O)NO [Compound 331] | 6.3 (≈ 13.3 µM)
CSC(C)(C)[C@H](NC(=O)c1ccc(C#Cc2ccc(CNCC#N)cc2)cc1)C(=O)NO [Compound 246] | 0.4 (≈ 0.888 µM)
CC(=O)C(NC(=O)c1ccc(C#Cc2ccc(CNCc3cccs3)cc2)cc1)C(=O)NO (stereo not shown) [Compound 411] | 0.8 (≈ 1.73 µM)
COCCCNCc1ccc(C#Cc2ccc(C(=O)N[C@H](C(=O)NO)C(C)C)cc2)cc1 [Compound 205] | 3.1 (≈ 7.09 µM)

test system: Pasteurella multocida PM 12080 (IV102277-0093, BRD field isolate); assay: MIC, broth-microdilution (CLSI VET01-A4), strain PM 12080; assay type: cell-based; settings: Pasteurella multocida strain PM 12080, broth-microdilution; unit assumed
Outline: as §1

Compound | MIC PM 12080 [µg/mL]
CCNCc1ccc(C#Cc2ccc(C(=O)N[C@H](C(=O)NO)C(C)C)cc2)cc1 [Compound 201] | 0.4 (≈ 1.02 µM)
CC(C)([C@H](NC(=O)c1ccc(C#Cc2ccc(CN3CCOCC3)cc2)cc1)C(=O)NO)S(C)(=O)=O [Compound 258] | ≤ 0.1
COCC(C)NCc1ccc(C#Cc2ccc(C(=O)N[C@@H](CO)C(=O)NO)cc2)cc1 (stereo partly shown) [Compound 164] | 1.6 (≈ 3.76 µM)
CC(C)(O)[C@H](NC(=O)c1ccc(C#Cc2ccc(CNCc3ccccn3)nc2)cc1)C(=O)NO [Compound 331] | 1.6 (≈ 3.38 µM)
CSC(C)(C)[C@H](NC(=O)c1ccc(C#Cc2ccc(CNCC#N)cc2)cc1)C(=O)NO [Compound 246] | 0.2 (≈ 0.444 µM)
CC(=O)C(NC(=O)c1ccc(C#Cc2ccc(CNCc3cccs3)cc2)cc1)C(=O)NO (stereo not shown) [Compound 411] | 0.2 (≈ 0.433 µM)
COCCCNCc1ccc(C#Cc2ccc(C(=O)N[C@H](C(=O)NO)C(C)C)cc2)cc1 [Compound 205] | 0.4 (≈ 0.914 µM)

test system: Pasteurella multocida PM 6267 (P 2225 (L386), reference strain, mouse infection strain); assay: MIC, broth-microdilution (CLSI VET01-A4), strain PM 6267; assay type: cell-based; settings: Pasteurella multocida strain PM 6267, broth-microdilution; unit assumed
Outline: as §1

Compound | MIC PM 6267 [µg/mL]
CCNCc1ccc(C#Cc2ccc(C(=O)N[C@H](C(=O)NO)C(C)C)cc2)cc1 [Compound 201] | 0.4 (≈ 1.02 µM)
CC(C)([C@H](NC(=O)c1ccc(C#Cc2ccc(CN3CCOCC3)cc2)cc1)C(=O)NO)S(C)(=O)=O [Compound 258] | ≤ 0.1
COCC(C)NCc1ccc(C#Cc2ccc(C(=O)N[C@@H](CO)C(=O)NO)cc2)cc1 (stereo partly shown) [Compound 164] | 0.4 (≈ 0.94 µM)
CC(C)(O)[C@H](NC(=O)c1ccc(C#Cc2ccc(CNCc3ccccn3)nc2)cc1)C(=O)NO [Compound 331] | 3.1 (≈ 6.55 µM)
CSC(C)(C)[C@H](NC(=O)c1ccc(C#Cc2ccc(CNCC#N)cc2)cc1)C(=O)NO [Compound 246] | ≤ 0.1
CC(=O)C(NC(=O)c1ccc(C#Cc2ccc(CNCc3cccs3)cc2)cc1)C(=O)NO (stereo not shown) [Compound 411] | 3.1 (≈ 6.72 µM)
COCCCNCc1ccc(C#Cc2ccc(C(=O)N[C@H](C(=O)NO)C(C)C)cc2)cc1 [Compound 205] | 0.2 (≈ 0.457 µM)

test system: Pasteurella multocida PM 6391 (ATCC 43137, reference strain); assay: MIC, broth-microdilution (CLSI VET01-A4), strain PM 6391; assay type: cell-based; settings: Pasteurella multocida strain PM 6391, broth-microdilution; unit assumed
Outline: as §1

Compound | MIC PM 6391 [µg/mL]
CCNCc1ccc(C#Cc2ccc(C(=O)N[C@H](C(=O)NO)C(C)C)cc2)cc1 [Compound 201] | 0.8 (≈ 2.03 µM)
CC(C)([C@H](NC(=O)c1ccc(C#Cc2ccc(CN3CCOCC3)cc2)cc1)C(=O)NO)S(C)(=O)=O [Compound 258] | ≤ 0.1
COCC(C)NCc1ccc(C#Cc2ccc(C(=O)N[C@@H](CO)C(=O)NO)cc2)cc1 (stereo partly shown) [Compound 164] | 1.6 (≈ 3.76 µM)
CC(C)(O)[C@H](NC(=O)c1ccc(C#Cc2ccc(CNCc3ccccn3)nc2)cc1)C(=O)NO [Compound 331] | 1.6 (≈ 3.38 µM)
CSC(C)(C)[C@H](NC(=O)c1ccc(C#Cc2ccc(CNCC#N)cc2)cc1)C(=O)NO [Compound 246] | 0.2 (≈ 0.444 µM)
CC(=O)C(NC(=O)c1ccc(C#Cc2ccc(CNCc3cccs3)cc2)cc1)C(=O)NO (stereo not shown) [Compound 411] | ≤ 0.1
COCCCNCc1ccc(C#Cc2ccc(C(=O)N[C@H](C(=O)NO)C(C)C)cc2)cc1 [Compound 205] | 0.4 (≈ 0.914 µM)
